Measurements published in patent publication US10208210B2, “Hydrophilic oil repellent and production method of same, surface coating material, coating film, resin composition, oil-water separation filter material, and porous body” (MITSUBISHI MATERIALS CORPORATION, priority 2014, dated 2019).

Test: Solubility of the compound in water at room temperature
Assay type: physicochemical
Conditions: room temperature (25° C.)
Description: 23.5 g of perfluoro(3-dibutylaminopropionic acid) was neutralized with 1.5 g of calcium hydroxide in a methanol/water mixed solution. The precipitated crystals were separated by filtration, and dried at 100° C., whereby 23.5 g of perfluoro(3-dibutylaminopropionic acid) calcium represented by the following formula (376) was obtained (yield of 97%). The solubility of the present compound in water at room temperature (25° C.) was 2 [g/100 g-H2O].
15.0 g of perfluoro(3-dibutylaminopropionic acid) obtained in the same manner as in Synthesis Example 1 was neutralized with 1.2 g of magnesium hydroxide in a methanol/water mixed solution. Next, the precipitated crystals were separated by filtration, and by extracting with methanol, a magnesium salt was obtained. The methanol was distilled off, whereby 14.4 g of perfluoro(3-dibutylaminopropionic acid) magnesium represented by the following formula (379) was obtained (yield of 94%). The solubility of the present compound in water at room temperature was 0.009 [g/100 g-H2O].
15.0 g of perfluoro(3-dibutylaminopropionic acid) obtained in the same manner as in Synthesis Example 1 was neutralized with 4.0 g of barium hydroxide octahydrate in a methanol/water mixed solution. […]

Row | Structure (SMILES) | solubility of the present compound in water [g/100 g-H2O]
1 | O=C(O)C(F)(F)C(F)(F)N(C(F)(F)C(F)(F)C(F)(F)C(F)(F)F)C(F)(F)C(F)(F)C(F)(F)C(F)(F)F.[Mg] [Synthesis Example 4, perfluoro(3-dibutylaminopropionic acid) magnesium] | 0.009
2 | O=C(O)C(F)(F)C(F)(F)N(C(F)(F)C(F)(F)C(F)(F)C(F)(F)F)C(F)(F)C(F)(F)C(F)(F)C(F)(F)F.[Ba] [Synthesis Example 5, perfluoro(3-dibutylaminopropionic acid) barium] | 0.04
